From patent US8314092B2, “Substituted [(5H-pyrrolo[2,1-c][1,4]benzodiazepin-11-yl)piperazin-1-yl]-2,2-dimethylpropanoic acid compounds as dual activity H1 inverse agonists/5-HT2A antagonists” (Eli Lilly and Company, priority 2011, dated 2012)
Structures can show the parent of a compound that is named as a salt.

Columns and labels:
[1] = target: 5-HT2B receptors (Homo sapiens, UniProt P41595); assay: 5-HT2B agonist functional activity assay; assay type: cell-based
Text: (§1) Further, the compounds of the invention may be tested in binding assays and functional activity assays by well known methods for other physiologically important receptors such as, but not limited to, the hERG channel, other serotonin receptors (specifically 5-HT1A, 5-HT1B, 5-HT1D, 5-HT1E, 5-HT1F receptors, lack of agonist activity at 5-HT2B receptors, 5-HT2C, 5-HT4, 5-HTS, 5-HT6, and 5-HT7 receptors), muscarinic receptors, dopaminergic receptors (specifically D1, D2, and D3), GABAA receptors, adrenergic receptors and monoamine transporters. Certain exemplified compounds are tested at these receptors and are shown to lack significant activity.

[2] = target: 5-HT5 (Homo sapiens, UniProt P47898); assay: 5-HT5 binding
Text: as §1

[3] = target: 5-HT7 (Homo sapiens, UniProt P34969); assay: 5-HT7 binding
Text: as §1

[4] = target: Adrenergic alpha2A (Homo sapiens, UniProt P08913); assay: Adrenergic alpha2A binding
Text: as §1

[5] = target: Norepinephrine Transport (Homo sapiens, UniProt P23975); assay: Norepinephrine transporter assay; assay type: binding; settings: dihydrochloride
Text: as §1

[6] = system: Wistar rats; assay: Sleep and behavioral monitoring in rats (EEG, EMG, motion); assay type: in vivo; settings: rat; for Rebound Insomnia, Adj. Mean: NREM + REM sleep in 7th-9th hours post-treatment; for Rebound Insomnia, Adj. Mean / REM inhibition, Adj. Mean / Cumulative NREM sleep, Adj. Mean / Cumulative Total sleep, Adj. Mean / Locomotor Activity Intensity, Adj. Mean: difference from vehicle; for REM inhibition, Adj. Mean: REM sleep in first 12 hours post-treatment; for Cumulative NREM sleep, Adj. Mean / Cumulative Total sleep, Adj. Mean / Locomotor Activity Intensity, Adj. Mean / Average Sleep Bout, Adj. Mean / Longest Sleep Bout, Adj. Mean: first 6 hours post-treatment; for Average Sleep Bout, Adj. Mean / Longest Sleep Bout, Adj. Mean: n-fold increase over vehicle controls
Method: Sleep and behavioral monitoring in rats: Representative compounds of the present invention are tested in rats for their ability to increase the amount of sleep or decrease sleep interruption or both without undesired effects such as inhibition of REM sleep, waking motor impairment, and/or rebound insomnia. Test animals are continuously monitored by electro-encephalograms (EEG), electromyograms (EMG), and motion to measure cumulative nonREM sleep, cumulative total sleep, average sleep bout duration, longest sleep bout duration, rebound insomnia, REM sleep inhibition and locomotor activity intensity during wakefulness. Methods for such studies are known in the art (see for example methods described in Edgar D M, Seidel W F. Modafinil induces wakefulness without intensifying motor activity or subsequent rebound hypersomnolence in the rat. J Pharmacology & Experimental Therapeutics 1997; 283: 757-769; van Gelder R N, Edgar D M, Dement W C. Real-time automated sleep scoring: validation of a microcomputer-based system for mice. Sleep 1991, 14: 48-55; and Gross B A, Walsh C M, Turakhia A A, Booth V, Mashour G A, Poe G R. Open-source logic-based automated sleep scoring software using electrophysiological recordings in rats. J Neurosci Methods. 2009; 184(1):10-8.) Studies are conducted as follows: Animal preparation. Adult, male Wistar rats (approximately 270-300 g at time of surgery) are surgically fitted for chronic recording of EEG, EMG, and motion as follows: Rats are surgically prepared with a cranial implant consisting of four stainless steel screws for EEG recording (two frontal [3.9 mm anterior from bregma, and ±2.0 mm mediolaterally] and two occipital [6.4 mm posterior from bregma, ±5.5 mm mediolaterally]), and with two Teflon-coated stainless steel wires for EMG recording (positioned under the nuchal trapezoid muscles). All leads are soldered to a miniature connector (Microtech, Boothwyn, Pa.) prior to surgery. The implant assembly is affixed to the skull by the combination of the stainless steel EEG recording screws, cyanoacrylate applied between the implant connector and skull, and dental acrylic. Locomotor activity is monitored via a miniature transmitter (Minimitter PDT4000G, Philips Respironics, Bend, Oreg.) surgically placed into the abdomen. At least 3 weeks are allowed for recovery. Recording environment. Each rat is housed individually within a microisolator cage modified with an inserted polycarbonate filter-top riser to allow more vertical headroom. A flexible cable that minimally restricts movement is connected at one end to a commutator affixed to the cage top and at the other end to the animal's cranial implant. Each cage is located within separate, ventilated compartments of a stainless steel sleep-wake recording chamber. Food and water are available ad libitum and the ambient temperature is maintained at about 23±1° C. A 24-hr. light-dark cycle (LD 12:12) using fluorescent light is maintained throughout the study. Relative humidity averages approximately 50%. Animals are undisturbed for at least 30 hrs before and after each treatment. Study design and dosing. The vehicle (placebo, methylcellulose 15 centipoise 0.25% in water) or one of the test compound dose levels is administered orally at 1 mL/kg pseudo-randomly such that no rat receives the same treatment twice, and no rat receives more than two of the 8 treatments in any one study. Each rat is removed from its cage for about a minute to be weighed and treated. At least 6 days “washout” period precede and follow each treatment. Data collection. […]

[7] = target: human recombinant H1 receptor (Homo sapiens, UniProt P35367); assay: H1 inverse agonism (IP1 accumulation in HEK293/hm H1 cells); assay type: cell-based; parameters: expressed in transfected cells; host or cells: HEK293 (HEK293/hm H1 clone R-40)
[8] = PO, 6 hour period after treatment

Sequence of human recombinant H1 receptor (P35367 whole entry): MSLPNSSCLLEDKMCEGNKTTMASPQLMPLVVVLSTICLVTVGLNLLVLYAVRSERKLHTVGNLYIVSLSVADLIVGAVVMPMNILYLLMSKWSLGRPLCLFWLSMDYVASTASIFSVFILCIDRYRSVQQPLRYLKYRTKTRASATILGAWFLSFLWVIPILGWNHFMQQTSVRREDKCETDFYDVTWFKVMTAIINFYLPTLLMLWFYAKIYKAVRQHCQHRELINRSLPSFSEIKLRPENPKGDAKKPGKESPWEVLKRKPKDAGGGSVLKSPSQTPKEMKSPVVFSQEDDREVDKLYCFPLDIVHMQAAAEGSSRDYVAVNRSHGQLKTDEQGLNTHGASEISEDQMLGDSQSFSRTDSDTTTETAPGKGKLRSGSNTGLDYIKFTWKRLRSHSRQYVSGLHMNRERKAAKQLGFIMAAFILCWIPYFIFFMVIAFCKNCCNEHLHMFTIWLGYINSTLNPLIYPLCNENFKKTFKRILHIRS
Sequence of Adrenergic alpha2A (P08913 whole entry): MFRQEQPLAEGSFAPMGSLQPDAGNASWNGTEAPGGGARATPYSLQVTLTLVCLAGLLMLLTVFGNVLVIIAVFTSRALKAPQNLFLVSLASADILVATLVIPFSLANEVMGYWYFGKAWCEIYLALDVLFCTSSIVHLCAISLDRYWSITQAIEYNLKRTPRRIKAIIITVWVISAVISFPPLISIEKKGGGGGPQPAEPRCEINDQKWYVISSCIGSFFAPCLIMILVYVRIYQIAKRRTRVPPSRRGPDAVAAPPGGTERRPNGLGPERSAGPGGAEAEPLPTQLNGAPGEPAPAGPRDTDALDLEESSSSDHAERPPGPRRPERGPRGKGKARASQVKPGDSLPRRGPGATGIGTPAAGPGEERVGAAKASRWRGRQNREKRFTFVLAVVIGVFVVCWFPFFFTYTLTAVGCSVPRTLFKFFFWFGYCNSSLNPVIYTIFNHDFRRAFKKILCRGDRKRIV
Sequence of 5-HT5 (P47898 whole entry, species assumed): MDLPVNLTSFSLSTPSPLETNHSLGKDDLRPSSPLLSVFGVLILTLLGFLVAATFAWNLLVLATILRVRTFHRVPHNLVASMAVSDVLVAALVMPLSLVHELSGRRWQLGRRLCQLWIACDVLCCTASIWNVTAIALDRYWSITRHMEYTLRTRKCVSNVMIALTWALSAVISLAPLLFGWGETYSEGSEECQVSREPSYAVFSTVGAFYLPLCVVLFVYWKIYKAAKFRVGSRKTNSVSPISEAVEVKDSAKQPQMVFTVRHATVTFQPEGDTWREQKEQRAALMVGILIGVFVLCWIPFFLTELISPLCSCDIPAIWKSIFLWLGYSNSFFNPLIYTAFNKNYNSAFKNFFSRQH
Sequence of 5-HT2B receptors (P41595 whole entry): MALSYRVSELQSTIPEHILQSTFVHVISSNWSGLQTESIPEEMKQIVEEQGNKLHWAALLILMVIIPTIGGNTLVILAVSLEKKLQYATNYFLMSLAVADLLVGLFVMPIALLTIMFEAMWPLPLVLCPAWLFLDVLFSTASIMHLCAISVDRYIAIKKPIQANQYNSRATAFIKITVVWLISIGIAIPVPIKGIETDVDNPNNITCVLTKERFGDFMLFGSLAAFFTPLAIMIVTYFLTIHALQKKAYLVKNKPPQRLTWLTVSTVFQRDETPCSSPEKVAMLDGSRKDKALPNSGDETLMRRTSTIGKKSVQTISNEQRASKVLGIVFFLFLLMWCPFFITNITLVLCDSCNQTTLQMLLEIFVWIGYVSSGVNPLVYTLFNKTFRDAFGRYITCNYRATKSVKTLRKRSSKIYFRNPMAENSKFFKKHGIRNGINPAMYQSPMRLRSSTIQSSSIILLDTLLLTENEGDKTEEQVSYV
Sequence of 5-HT7 (P34969 whole entry, species assumed): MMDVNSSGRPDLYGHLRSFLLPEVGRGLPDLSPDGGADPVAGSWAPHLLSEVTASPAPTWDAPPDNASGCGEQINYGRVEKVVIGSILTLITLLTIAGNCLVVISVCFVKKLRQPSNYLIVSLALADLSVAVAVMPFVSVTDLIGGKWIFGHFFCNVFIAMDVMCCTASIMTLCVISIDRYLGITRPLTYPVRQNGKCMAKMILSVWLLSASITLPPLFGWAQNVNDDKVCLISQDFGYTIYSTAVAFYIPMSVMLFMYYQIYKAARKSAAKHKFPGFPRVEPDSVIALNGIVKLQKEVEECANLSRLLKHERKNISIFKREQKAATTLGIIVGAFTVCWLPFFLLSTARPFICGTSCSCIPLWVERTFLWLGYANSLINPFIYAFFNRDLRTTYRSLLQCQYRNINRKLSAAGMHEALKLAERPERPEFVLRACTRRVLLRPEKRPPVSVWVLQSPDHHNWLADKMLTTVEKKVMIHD
Sequence of Norepinephrine Transport (P23975 whole entry): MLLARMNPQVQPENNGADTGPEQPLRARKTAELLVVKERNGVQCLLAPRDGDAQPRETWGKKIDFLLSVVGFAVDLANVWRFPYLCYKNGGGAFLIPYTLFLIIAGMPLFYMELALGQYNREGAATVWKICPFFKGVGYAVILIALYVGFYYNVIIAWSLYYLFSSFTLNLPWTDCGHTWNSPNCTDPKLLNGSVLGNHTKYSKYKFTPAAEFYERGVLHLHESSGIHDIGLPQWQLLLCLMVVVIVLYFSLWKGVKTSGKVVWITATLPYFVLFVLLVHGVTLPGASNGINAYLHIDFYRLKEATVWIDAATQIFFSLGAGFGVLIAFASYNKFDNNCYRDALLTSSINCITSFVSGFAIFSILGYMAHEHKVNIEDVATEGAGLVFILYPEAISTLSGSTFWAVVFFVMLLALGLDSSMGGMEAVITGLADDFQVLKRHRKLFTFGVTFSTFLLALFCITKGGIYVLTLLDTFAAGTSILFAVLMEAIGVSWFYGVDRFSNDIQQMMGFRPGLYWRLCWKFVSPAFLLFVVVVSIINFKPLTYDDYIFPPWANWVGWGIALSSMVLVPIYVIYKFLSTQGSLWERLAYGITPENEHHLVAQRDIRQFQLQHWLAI

Cc1cc2n(c1)Cc1cc(Cl)ccc1N=C2N1CCN(CC(C)(C)C(=O)O)CC1 [Example 13, 3-[4-(7-Chloro-2-methyl-5H-pyrrolo[2,1-c][1,4]benzodiazepin-11-yl)piperazin-1-yl]-2,2-dimethylpropanoic acid dihydrochloride]
EC50 [1]: > 10 µM
Ki [2]: > 9.09 µM
Ki [3]: > 3.97 µM
Ki [4]: > 8.47 µM
Norepinephrine Transport [5]: >526
Rebound Insomnia, Adj. Mean ([6]; 0.03 mg/kg PO): -0.7 min
REM inhibition, Adj. Mean ([6]; 0.03 mg/kg PO): 1.8 min
Cumulative NREM sleep, Adj. Mean ([6]; 0.03 mg/kg PO): 5.1 min
Cumulative Total sleep, Adj. Mean ([6]; 0.03 mg/kg PO): 7.3 min
Locomotor Activity Intensity, Adj. Mean ([6]; 0.03 mg/kg PO): −0.97 LMA counts per minute of EEG-defined wakefulness
Average Sleep Bout, Adj. Mean ([6]; 0.03 mg/kg PO): 1.1 n-fold
Longest Sleep Bout, Adj. Mean ([6]; 0.03 mg/kg PO): 1.3 n-fold
Rebound Insomnia, Adj. Mean ([6]; 0.10 mg/kg PO): -5.4 min
REM inhibition, Adj. Mean ([6]; 0.10 mg/kg PO): 1.0 min
Cumulative NREM sleep, Adj. Mean ([6]; 0.10 mg/kg PO): 5.9 min
Cumulative Total sleep, Adj. Mean ([6]; 0.10 mg/kg PO): 5.9 min
Locomotor Activity Intensity, Adj. Mean ([6]; 0.10 mg/kg PO): −0.35 LMA counts per minute of EEG-defined wakefulness
Average Sleep Bout, Adj. Mean ([6]; 0.10 mg/kg PO): 1.1 n-fold
Longest Sleep Bout, Adj. Mean ([6]; 0.10 mg/kg PO): 1.7 n-fold
Rebound Insomnia, Adj. Mean ([6]; 0.25 mg/kg PO): -1.9 min
REM inhibition, Adj. Mean ([6]; 0.25 mg/kg PO): 4.7 min
Cumulative NREM sleep, Adj. Mean ([6]; 0.25 mg/kg PO): 15.2 min
Cumulative Total sleep, Adj. Mean ([6]; 0.25 mg/kg PO): 17.7 min
Locomotor Activity Intensity, Adj. Mean ([6]; 0.25 mg/kg PO): −0.58 LMA counts per minute of EEG-defined wakefulness
Average Sleep Bout, Adj. Mean ([6]; 0.25 mg/kg PO): 1.2 n-fold
Longest Sleep Bout, Adj. Mean ([6]; 0.25 mg/kg PO): 1.7 n-fold
Rebound Insomnia, Adj. Mean ([6]; 0.50 mg/kg PO): -7.2 min
REM inhibition, Adj. Mean ([6]; 0.50 mg/kg PO): 5.8 min
Cumulative NREM sleep, Adj. Mean ([6]; 0.50 mg/kg PO): 22.2 min
Cumulative Total sleep, Adj. Mean ([6]; 0.50 mg/kg PO): 25.1 min
Locomotor Activity Intensity, Adj. Mean ([6]; 0.50 mg/kg PO): −0.14 LMA counts per minute of EEG-defined wakefulness
Average Sleep Bout, Adj. Mean ([6]; 0.50 mg/kg PO): 1.4 n-fold
Longest Sleep Bout, Adj. Mean ([6]; 0.50 mg/kg PO): 1.8 n-fold
Rebound Insomnia, Adj. Mean ([6]; 1 mg/kg PO): -9.7 min
REM inhibition, Adj. Mean ([6]; 1 mg/kg PO): 2.6 min
Cumulative NREM sleep, Adj. Mean ([6]; 1 mg/kg PO): 28.0 min
Cumulative Total sleep, Adj. Mean ([6]; 1 mg/kg PO): 30.6 min
Locomotor Activity Intensity, Adj. Mean ([6]; 1 mg/kg PO): −2.94 LMA counts per minute of EEG-defined wakefulness
Average Sleep Bout, Adj. Mean ([6]; 1 mg/kg PO): 1.6 n-fold
Longest Sleep Bout, Adj. Mean ([6]; 1 mg/kg PO): 2.5 n-fold
REM sleep inhibition (in words) ([6]; 3 mg/kg): without significant
cumulative NREM sleep time (in words) ([6]; 3 mg/kg): significantly increase
cumulative total sleep time (in words) ([6]; 3 mg/kg): significantly increase
inhibition of locomotor intensity (LMI) (in words) ([6]; 3 mg/kg): without significant
rebound insomnia (in words) ([6]; 3 mg/kg): without significant
Rebound Insomnia, Adj. Mean ([6]; 3 mg/kg PO): -7.8 min
REM inhibition, Adj. Mean ([6]; 3 mg/kg PO): 7.0 min
Cumulative NREM sleep, Adj. Mean ([6]; 3 mg/kg PO): 39.5 min
Cumulative Total sleep, Adj. Mean ([6]; 3 mg/kg PO): 42.3 min
Locomotor Activity Intensity, Adj. Mean ([6]; 3 mg/kg PO): −1.49 LMA counts per minute of EEG-defined wakefulness
Average Sleep Bout, Adj. Mean ([6]; 3 mg/kg PO): 1.8 n-fold
Longest Sleep Bout, Adj. Mean ([6]; 3 mg/kg PO): 2.7 n-fold
Rebound Insomnia, Adj. Mean ([6]; 10 mg/kg PO): 3.1 min
REM inhibition, Adj. Mean ([6]; 10 mg/kg PO): 2.9 min
Cumulative NREM sleep, Adj. Mean ([6]; 10 mg/kg PO): 51.8 min
Cumulative Total sleep, Adj. Mean ([6]; 10 mg/kg PO): 52.8 min
Locomotor Activity Intensity, Adj. Mean ([6]; 10 mg/kg PO): −0.11 LMA counts per minute of EEG-defined wakefulness
Average Sleep Bout, Adj. Mean ([6]; 10 mg/kg PO): 2.3 n-fold
Longest Sleep Bout, Adj. Mean ([6]; 10 mg/kg PO): 3.1 n-fold
Estimated efficacy dose (mg/kg), NREM accumulation = 30 min [6, 8]: 1.2 mg/kg
Estimated efficacy dose (mg/kg), average sleep bout (1.5-fold increase) [6, 8]: 0.77 mg/kg
Estimated efficacy dose (mg/kg), longest sleep bout (1.75-fold increase) [6, 8]: 0.21 mg/kg
Estimated efficacy dose (mg/kg), total sleep accumulation = 25 min [6, 8]: 0.58 mg/kg
IC50 ([7]; IP1 accumulation, HEK293/hm H1 cells): 53.9 ± 37 nM
suppression of constitutive activity (negative efficacy) ([7]; relative to positive control Tripelennamine 10 μM): 126±6%
